Assay results reported in patent US10028961B2, “Therapeutically active compounds and their methods of use” (AGIOS PHARMACEUTICALS, INC., priority 2013, dated 2018).

Legend:
Assay type in all cases: biochemical
[1] = target: IDH1-R132 homodimer enzyme (R132H) (Homo sapiens (Human), UniProt O75874, R132H); assay: In vitro assay IDH1-R132H homodimer, NADPH depletion assay
Method: (§1) The following describes the experimental procedures that can be used to obtain data on columns 3 and 6 of Table 4.
(§2) A test compound is prepared as 10 mM stock in DMSO and diluted to 50× final concentration in DMSO, for a 50 μl reaction mixture. IDH enzyme activity converting alpha-ketoglutarate to 2-hydroxyglutaric acid is measured using a NADPH depletion assay. In the assay the remaining cofactor is measured at the end of the reaction with the addition of a catalytic excess of diaphorase and resazurin, to generate a fluorescent signal in proportion to the amount of NADPH remaining. […] The reaction is started with the addition of 10 μl of Substrate Mix ([…], 5 mM alpha-ketoglutarate, in Assay Buffer) and the mixture is incubated for 90 minutes at room temperature.

[2] = target: IDH1 R132C (Homo sapiens (Human), UniProt O75874, R132C); assay: In vitro assay IDH1 R132C homodimer, NADPH depletion assay
Method: as §1, §2
The concentration of NADPH and alpha-ketoglutarate in the Substrate Buffer is 20 μM and 1 mM, respectively.

[3] = target: IDH1 wt/IDH1 R132H heterodimer (Homo sapiens (Human), UniProt O75874, R132H); assay: In vitro assay for IDH1m R132H inhibitors, IDH1 wt/IDH1 R132H heterodimer, NADPH depletion (diaphorase/resazurin); conditions: IDH1 wt/R132H heterodimer, NADPH/NADP, not saturated; read-out: IDH1 wt/R132H NADPH/NADP IC50 not saturated
Method in brief: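 Read-out is NADPH left after α-KG reduction to 2-HG, measured via resorufin fluorescence after 5 min diaphorase/resazurin step at 25° C. Enzyme is sf9-expressed IDH1wt-his/IDH1R132H-flag heterodimer, pre-incubated 1 hr at room temperature with compound and cofactor. IC50s from DMSO stocks diluted 1:50.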

[4] = target: IDH1 wt/IDH1 R132C heterodimer (Homo sapiens (Human), UniProt O75874, R132C); assay: In vitro assay for IDH1m R132C inhibitors, IDH1 wt/IDH1 R132C heterodimer, NADPH depletion (diaphorase/resazurin); conditions: NADPH/NADP
Method: The following describes the experimental procedures that can be used to obtain data on columns 2 and 4 of Table 4 and column 2 of Table 5.
In the primary reaction, the reduction of α-KG acid to 2-HG is accompanied by a concomitant oxidation of NADPH to NADP. The amount of NADPH remaining at the end of the reaction time is measured in a secondary diaphorase/resazurin reaction in which the NADPH is consumed in a 1:1 molar ratio with the conversion of resazurin to the highly fluorescent resorufin.
The mixture of compound, enzyme, and cofactor is pre-incubated at room temperature for 1 hr prior to the addition of alpha-ketoglutarate. To perform the secondary reaction, 10 uL of 1× buffer containing 36 μg/ml diaphorase and […] resazurin is added to the primary reaction and incubated for a further 5 minutes at 25° C. Florescence is read on a Spectramax platereader at Ex 544 Em 590. Compounds or compound dilutions are prepared in 100% DMSO concentration and diluted 1:50 into the final reaction. […] IC50s are determined.
IDH1 or IDH2 wildtype (wt) and mutant heterodimers are expressed and purified by methods known in the art. For example, IDH1wt/R132m heterodimer is expressed and purified as follows. Co-expression of IDH1wt-his and IDH1R132C-flag is carried out in sf9 insect cells. Cells (25 g) are resuspended in 250 ml of 50 mM Tirs, 500 mM NaCl, pH7.4, at 4° C. with stirring. Cells are disrupted with 4 passes through an M-Y110 Micro fluidizer (Microfluidics) set to 500 psi, and then centrifuged at 22,000 rcf for 20 min at 4° C. The supernatant is harvested and loaded at 15 cm/h on a Histrap FF 5*1 ml column (GE) which is equilibrated with 50 mM Tirs, 500 mM NaCl, pH7.4. Host cell contaminants are removed by washing the column with equilibration buffer followed by equilibration buffer containing 20 mM imidazole and 60 mM imidazole to baseline. IDH1wt-his homodimer and IDH1wt-his/IDH1R132C-flag are eluted by equilibration buffer containing 250 mM imidazole. Fractions eluted by 250 mM imidazole are pooled together and loaded at 15 cm/h onto a column pre-packed with 10 ml ANTI-FLAG® M2 Affinity Gel (Sigma), the column is equilibrated with 50 mM Tris, 500 mM NaCl, pH7.4. After washing with equilibration buffer, IDH1wt-his/IDH1R132C-flag heterodimer is eluted by equilibration buffer containing flag peptide (0.2 mg/ml). Aliquots of IDH1wt-his/IDH1R132C-flag are flash frozen in liquid N2 and stored at −80° C. Same conditions are used for the purification of IDH1wt-his/IDH1R132H-flag.

Sequence of IDH1 wt/IDH1 R132H heterodimer (O75874 whole entry R132H): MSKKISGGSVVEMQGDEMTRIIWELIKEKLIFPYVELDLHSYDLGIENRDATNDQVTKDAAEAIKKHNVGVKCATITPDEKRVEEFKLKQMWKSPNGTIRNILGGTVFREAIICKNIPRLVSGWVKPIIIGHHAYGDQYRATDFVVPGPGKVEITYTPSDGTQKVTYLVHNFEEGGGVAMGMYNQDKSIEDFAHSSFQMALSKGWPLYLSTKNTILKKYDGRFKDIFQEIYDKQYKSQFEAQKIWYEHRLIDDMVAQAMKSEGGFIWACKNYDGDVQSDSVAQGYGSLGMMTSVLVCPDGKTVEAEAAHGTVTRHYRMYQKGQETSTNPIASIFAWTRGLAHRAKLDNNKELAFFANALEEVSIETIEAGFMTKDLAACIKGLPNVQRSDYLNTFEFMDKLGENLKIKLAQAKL
Sequence of IDH1 wt/IDH1 R132H heterodimer (O75874 whole entry, stated change not applied): as the sequence (O75874 whole entry R132H) above, with H132R counted along it
Sequence of IDH1-R132 homodimer enzyme (R132H) (O75874 whole entry R132H): as the sequence (O75874 whole entry R132H) above
Sequence of IDH1 wt/IDH1 R132C heterodimer (O75874 whole entry R132C): as the sequence (O75874 whole entry R132H) above, with H132C counted along it
Sequence of IDH1 wt/IDH1 R132C heterodimer (O75874 whole entry, stated change not applied): as the sequence (O75874 whole entry R132H) above, with H132R counted along it
Sequence of IDH1 R132C (O75874 whole entry R132C): as the sequence (O75874 whole entry R132H) above, with H132C counted along it

| Compound | IC50 [1] | IC50 [2] | IDH1 R132C IC50 [2] | IC50 [3] | IC50 [4] |
| --- | --- | --- | --- | --- | --- |
| CC(C)Nc1nc(NC(C)C)nc(-c2cccc(C(F)(F)F)n2)n1 [Compound 3] | 100 to 1000 nM | 50 to 100 nM | – | – | – |
| C[C@@H](Nc1nc(NCC(N)=O)nc(-c2cccc(C(F)(F)F)n2)n1)C1CC1 [Compound 5] | > 1000 nM | – | No Fit | – | – |
| C[C@@H](Nc1nc(N[C@H](C)C2CC2)nc(-c2ccccc2F)n1)C1CC1 [Compound 6] | > 1000 nM | 100 to 1000 nM | – | – | – |
| CC(=O)CNc1nc(N[C@H](C)C2CC2)nc(-c2cccc(C(F)(F)F)n2)n1 [Compound 15] | > 1000 nM | > 1000 nM | – | – | – |
| C[C@@H](Nc1nc(N[C@@H]2C[C@H]2c2ccccc2)nc(-c2cccc(C(F)(F)F)n2)n1)C1CC1 [Compound 23] | 50 to 100 nM | 50 to 100 nM | – | – | – |
| C[C@@H](Nc1nc(NCc2ccccn2)nc(-c2cccc(C(F)(F)F)n2)n1)C1CC1 [Compound 24, (R)-N^2-(1-cyclopropylethyl)-N^4-(pyridin-2-ylmethyl)-6-(6-(trifluoro-methyl)pyridin-2-yl)-1,3,5-triazine-2,4-diamine] | > 1000 nM | > 1000 nM | – | – | – |
| CC(Nc1nc(N[C@H](C)C2CC2)nc(-c2cccc(C(F)(F)F)n2)n1)c1ccccn1 (stereo partly drawn) [Compound 25, N^2-((R)-1-cyclopropylethyl)-N^4-(1-(pyridin-2-yl)ethyl)-6-(6-(trifluoromethyl)pyridin-2-yl)-1,3,5-triazine-2,4-diamine] | > 1000 nM | > 1000 nM | – | – | – |
| CC(Nc1nc(N[C@H](C)C2CC2)nc(-c2cccc(C(F)(F)F)n2)n1)c1cccc(C(F)(F)F)c1 (stereo partly drawn) [Compound 27] | 50 to 100 nM | 100 to 1000 nM | – | – | – |
| C[C@@H](Nc1nc(NC(=O)c2ccccc2)nc(-c2cccc(C(F)(F)F)n2)n1)C1CC1 [Compound 29] | 100 to 1000 nM | > 1000 nM | – | – | – |
| COc1ccc(F)c(-c2nc(NC(C)C)nc(NC(C)(C)C#N)n2)c1 [Compound 32] | > 1000 nM | > 1000 nM | – | – | – |
| FC1(F)CCC(Nc2nc(NC3CCOC3)nc(-c3cccc(C(F)(F)F)n3)n2)C1 (stereo not drawn) [Compound 52] | – | – | – | 50 to 100 nM | < 50 nM |
| CC(C)(C)OC(=O)N1CCC(Nc2nc(NC3CCC(F)(F)C3)nc(-c3cccc(C(F)(F)F)n3)n2)C1 (stereo not drawn) [Compound 53] | – | – | – | 100 to 1000 nM | 50 to 100 nM |
| CC(=O)N1CCC(Nc2nc(NC3CCC(F)(F)C3)nc(-c3cccc(C(F)(F)F)n3)n2)C1 (stereo not drawn) [Compound 55] | – | – | – | 100 to 1000 nM | 50 to 100 nM |
| CS(=O)(=O)N1CCC(Nc2nc(NC3CCC(F)(F)C3)nc(-c3cccc(C(F)(F)F)n3)n2)C1 (stereo not drawn) [Compound 56] | – | – | – | 50 to 100 nM | < 50 nM |
| C[C@@H](Nc1nc(NC2CC3(C2)CC(F)(F)C3)nc(-c2cccc(C(F)(F)F)n2)n1)C1CC1 [Compound 58] | – | – | – | < 50 nM | < 50 nM |
